US12226375B1, “Method of treatment and selection of patients benefiting from agomelatine based on EEG measurements” (Alto Neuroscience, Inc., priority 2023, dated 2025)

Tests used:
[1] = system: patients with major depressive disorder; assay: Open-label trials of adjunctive agomelatine 25 mg at bedtime in MDD (NCT05118750, NCT05157945): MADRS change by EEG-predicted response; assay type: in vivo, human
Protocol: The inventors conducted two parallel open-label clinical trials of agomelatine at 25 mg once at bedtime in patients with major depressive disorder (NCT05118750 and NCT05157945, whose data was pooled in these analyses). […] Patients were evaluated over the course of eight weeks of treatment.
EEG data were collected at rest (encompassing both eyes open and eyes closed conditions) prior to treatment using a 19-channel EEG system covering the conventional 10-20 electrode locations. A total of 107 patients with moderate to severe depression (MADRS≥20 and PHQ-9≥10) had EEG data (107 with eyes open (REO) EEG, 105 with eyes closed (REC) EEG). Quality control assessments were conducted, yielding 105 REO patient datasets and 103 REC patient datasets. […] The training dataset consisted of 60 REO patient datasets and 60 REC patient datasets. The holdout set consisted of 49 REO patient datasets and 46 REC patient datasets.
In order to compile these individual signals into a single EEG composite entropy model for prediction of treatment outcome, the inventors conducted 10-fold cross-validated machine learning using elastic net regularization against an outcome of high versus low response to agomelatine. […]
The Cohen's d effect sizes at these weeks are all >0.4, indicating a substantial effect size for the prediction, especially considering that the meta-analytically calculated all-comer (i.e., unselected depression patients) effect size for the difference in treatment response to agomelatine (as monotherapy) versus placebo is d=0.26 (Cipriani et al., Lancet., 2018, 391 (10128): 1357-1366, PMID: 29477251).
Given the approximate 50% prevalence of positivity on the EEG machine learning model, one can estimate the agomelatine-placebo difference in EEG-predicted agomelatine responders by adding the all-comer effect size (d=0.26) to the enrichment in EEG-predicted responders over the all-comer population. This enrichment is calculated by halving the effect size between EEG-predicted responders and non-responders, since the average of these two groups is the all-comer population. […]

[2] = system: unselected depression patients; conditions: meta-analytically calculated; cited from earlier work
sleep measures = conditions: in contrast to an SSRI which did not change these measures; cited from earlier work
circadian rhythm = conditions: due to melatonergic agonism; cited from earlier work

Row | SMILES | Cohen's d effect size, predicted responders vs non-responders, change in MADRS scores ([1]; EEG sample entropy machine learning model, cross-validation left-out data of training dataset, all weeks (FIG. 2A)) | Cohen's d, predicted agomelatine responders versus non-responders, observed change in MADRS scores ([1]; EEG sample entropy model, holdout dataset, weeks 4, 6 and 8 (FIG. 2B)) | MADRS change, high vs low Pz low-gamma sample entropy patients ([1]; Pz electrode, 30-40 Hz, z≥0.27, full study sample, all weeks (FIG. 2C)) | all-comer effect size d, treatment response to agomelatine (as monotherapy) versus placebo [2] | sleep measures assessed using actigraphic measurements (sleep measures) | effect on circadian rhythm (circadian rhythm)
1 | COc1ccc2cccc(CCNC(C)=O)c2c1 [agomelatine, N-[2-(7-methoxynaphthalen-1-yl)ethyl]acetamide] | > 0.4 | > 0.4 | strong and statistically significant prediction of treatment outcome across all weeks | 0.26 | improve sleep measures | phase advance circadian rhythm
2 | COc1ccc2[nH]cc(CCNC(C)=O)c2c1 [melatonin] |  |  |  |  |  | phase advance circadian rhythm
